A short description of data set [1]: Metabolic stability against human hepatic S9 fraction. It counts as in vitro ADME. The following applies: pooled human liver S9 fraction; 1 μM compound, 1 mg/mL pooled human liver S9, phase I and II cofactors, 37° C.; read-out: half-life (t1/2) towards human hepatic S9 fraction. On the procedure:
For the evaluation of combined phase I and phase II metabolic stability, the compound (1 μM) was incubated with 1 mg/mL pooled human liver S9 fraction (BD Gentest), 2 mM NADPH regenerating system, 1 mM UDPGA, 10 mM MgCl2 and 0.1 mM PAPS at 37° C. for 0, 5, 15, 30 and 60 min. The metabolic stability of Testosterone (1 μM) and 7-hydroxycoumarin (1 μM) were determined in parallel to confirm the enzymatic activity of the S9 fraction. The incubation was stopped by precipitation of S9 enzymes with 2 volumes of cold acetonitrile containing internal standard (750 nM Diphenhydramine). Samples were stored on ice for 10 min and precipitated protein was removed by centrifugation (10 min, 4° C., 17,000 g). Concentration of the remaining test compound at the different time points was analyzed by LC-MS/MS (TSQ Quantum Access MAX, Thermo Fisher, Dreieich, Germany) and used to determine half-life (t/2).

Data set [2] deals with P. aeruginosa pyocyanin production. Kind of data set: Pyocyanin assay. It counts as cell-based, P. aeruginosa PA14. The following applies: Pseudomonas aeruginosa, PA14, 16 h, read-out: IC50-value towards pyocyanin production, PA14 in PPGAS medium, 16 h. A digest of the protocol: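 PA14 in PPGAS medium from OD600 0.02 grown 16 h at 37 °C, 200 rpm, with compounds. Pyocyanin extracted with chloroform, back-extracted into 0.2 M HCl, OD520 normalised to OD600.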

For a further data set, the target named is PqsR (Pseudomonas aeruginosa, UniProt Q9I4X0). Put plainly: E. coli based β-galactosidase reporter gene assay (PqsR inverse agonistic activity). In kind it is cell-based. Further details: expressed in transfected cells; host or cells: Escherichia coli DH5α. A digest of the protocol:
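E. coli DH5α carrying pEAL08-2 (tac-driven pqsR with pqsA-lacZ) was grown to OD600 0.2 and incubated with 0.001–10 μM compound plus 50 nM PQS for 2.5 h at 37 °C. β-Galactosidase activity was measured by ONPG conversion in permeabilized cells and normalized between the no-PQS and solvent controls. IC50 came from concentration variation.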

Data set [3] is described as follows: Kinetic Turbidimetric Aqueous Solubility at room temperature for 5 min. In kind it is physicochemical. To be noted: PBS buffer, kinetic from dmso stock, 2% DMSO. A digest of the protocol: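 Compound diluted in PBS across typically 0.4–200 μM (final DMSO 2%), held 5 min at room temperature. Turbidity read as absorbance at 620 nm against vehicle control. Four-parameter sigmoidal fit of normalized absorbances with AUC calculation gives Log S.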

Data set [4] can be described thus: Metabolic stability in mouse liver microsomes (MLM). It counts as in vitro ADME. To be noted: 1 μM compound, 0.5 mg/mL MLM, 1 mM NADPH, 37° C., read-out: half-life (t1/2) towards MLM. The method, then: For the evaluation of phase I metabolic stability, the compound (1 μM) was incubated with 0.5 mg/mL MLM (Corning) and 1 mM NADPH at 37° C. for 0, 5, 10, 15 and 30 min. The metabolic stability of Verapamil, Diphenhydramine and Benzydamine (1 μM each) were determined in parallel to confirm the enzymatic activity of the MLM. The incubation was stopped by addition of 2 volumes of acetonitrile containing internal standard (1 μM Leucine Enkephaline). Samples were centrifuged (15 min, 3,500 rpm). Concentration of the remaining test compound at the different time points was analyzed by HPLC-MS/MS and used to determine half-life (t1/2).

The next data set concerns HepG2 cells. Kind of data set: Cytotoxicity (MTT) toward HepG2. It counts as cell-based. To be noted: Homo sapiens, 48 h, upper class: or at solubility maximum, read-out: IC50-value towards HepG2. On the procedure: To obtain information regarding the toxicity of our compounds, their impact on the viability of human cells was investigated. HepG2 and HEK293 cells (2×10^5 per well) were seeded in 24-well, flat-bottomed culture plates. 24 h after seeding the cells the incubation was started by the addition of compounds in a final DMSO concentration of 1%. The living cell mass was determined 48 h after treatment with compounds by adding 0.1 volumes of 3-(4,5-dimethylthiazol-2-yl)-2,5-diphenyltetrazolium bromide (MTT) solution (5 mg per mL sterile PBS) (Sigma, St. Louis, MO) to the wells. After incubating the cells for 30 min at 37° C. (atmosphere containing 5% CO2), MTT crystals were dissolved in a solution containing 10% SDS and 0.5% acetic acid in DMSO. The optical density (OD) of the samples was determined photometrically at 570 nm in a FLUOstar Omega plate reader (BMG labtech, Ortenberg, Germany). To obtain inhibition values for each sample, their ODs were related to those of DMSO controls.

Each structure is given as a SMILES string. pIC50: −log10 of the molar value.

Chain of PqsR (Q9I4X0 whole entry): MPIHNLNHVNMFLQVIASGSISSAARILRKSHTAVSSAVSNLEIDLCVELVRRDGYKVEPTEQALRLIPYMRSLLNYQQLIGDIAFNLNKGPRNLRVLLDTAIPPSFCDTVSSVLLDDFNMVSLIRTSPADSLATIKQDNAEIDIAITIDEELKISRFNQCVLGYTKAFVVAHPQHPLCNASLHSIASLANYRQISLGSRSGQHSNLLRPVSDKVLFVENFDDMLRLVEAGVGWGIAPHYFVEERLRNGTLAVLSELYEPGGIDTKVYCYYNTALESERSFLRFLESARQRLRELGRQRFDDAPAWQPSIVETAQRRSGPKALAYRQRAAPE

Regarding `FC(F)(F)c1cc(SCc2cn(-c3ccc(Oc4ccccc4)cc3)nn2)ccn1` [Compound 054, 4-(((1-(4-phenoxyphenyl)-1H-1,2,3-triazol-4-yl)methyl)thio)-2-(trifluoromethyl)pyridine], the half-life at 1 μM in data set [1] was more than 1 h. In addition, the pIC50 is 6.00 to 6.60 in data set [2] and not below 7.30 on PqsR.
The matching figures for `FC(F)(F)c1cc(SCc2cnc(-c3ccc(Oc4ccccc4)cc3)s2)ccn1` [Compound 066, 2-(4-Phenoxyphenyl)-5-(((2-(trifluoromethyl)pyridin-4-yl)thio)methyl)thiazole]: more than 1 h, 5.30 to 6.00 and 6.60 to 7.29.
On to `FC(F)(F)c1cc(NCc2cnc(-c3ccc(Cl)cc3)s2)ccn1` [Compound 072, N-((2-(4-Chlorophenyl)thiazol-5-yl)methyl)-2-(trifluoromethyl)pyridin-4-amine], for which the solubility at 5 min in data set [3] was more than 25 µM. Moreover, the half-life at 1 μM in data set [1] and in data set [4] was more than 1 h in each case. The negative-log IC50 (pIC50) in data set [2] is 6.00 to 6.60; on PqsR, 6.60 to 7.29; with HepG2 cells it was 4.30 to 4.60.
Turning to `N#Cc1cc(NCc2cnc(-c3ccc(Oc4ccccc4)cc3)s2)ccn1` [Compound 076, 4-(((2-(4-Phenoxyphenyl)thiazol-5-yl)methyl)amino)picolinonitrile], the half-life at 1 μM in data set [1] and in data set [4] was more than 1 h in each case. Further, the pIC50 in data set [2] was not below 6.60; at PqsR, not below 7.30.
For `COc1ccc(-c2ncc(CNc3ccnc(C#N)c3)s2)cc1Cl` [Compound 077, 4-(((2-(3-Chloro-4-methoxyphenyl)thiazol-5-yl)methyl)amino)picolinonitrile], in data set [3], the solubility at 5 min is more than 10 µM. Also, the results for the pIC50 (in data set [2]; on PqsR; with HepG2 cells) were not below 6.60, not below 7.30 and 4.30 to 4.60, respectively.
`FC(F)(F)c1cc(NCc2csc(-c3ccc(C4CC4)cc3)n2)ccn1` [Compound 081, N-((2-(4-Cyclopropylphenyl)thiazol-4-yl)methyl)-2-(trifluoromethyl)pyridin-4-amine]: in data set [1], the half-life at 1 μM lay in the range of 0.683 to 1 h. For the same compound, the negative logarithm of the IC50 (pIC50) in data set [2] is not below 6.60; on PqsR it was not below 7.30.
`CC(C)Oc1ccc(-c2nc(CNc3ccnc(C(F)(F)F)c3)cs2)cc1Cl` [Compound 082, N-((2-(3-Chloro-4-isopropoxyphenyl)thiazol-4-yl)methyl)-2-(trifluoromethyl)pyridin-4-amine]: in data set [1], the half-life at 1 μM is more than 1 h. In addition, the negative-log IC50 (pIC50) was not below 6.60 in data set [2] and not below 7.30 at PqsR.
Compound `CC(C)Oc1ccc(-c2nc(CNc3ccnc(C(F)(F)F)c3)cs2)cc1` [Compound 087, N-((2-(4-Isopropoxyphenyl)thiazol-4-yl)methyl)-2-(trifluoromethyl)pyridin-4-amine] gave a solubility at 5 min in data set [3] of more than 10 µM. Besides, the half-life at 1 μM in data set [1] is more than 1 h. In addition, the values for the pIC50 (in data set [2]; at PqsR) were not below 6.60 and not below 7.30, respectively.
`FC(F)(F)c1cc(NCc2cnc(-c3ccc(Oc4ccccc4)cc3)nc2)ccn1` [Compound 105, N-((2-(4-Phenoxyphenyl)pyrimidin-5-yl)methyl)-2-(trifluoromethyl)pyridin-4-amine]: the solubility at 5 min in data set [3] is more than 10 µM. The pIC50 in data set [2] is 6.00 to 6.60; on PqsR, 6.60 to 7.29. In data set [4], the half-life at 1 μM is 0.517 to 1 h.
With `CC(C)Oc1ccc(-c2ncc(CNc3ccnc(C(F)(F)F)c3)cn2)cc1` [Compound 106, N-((2-(4-isopropoxyphenyl)pyrimidin-5-yl)methyl)-2-(trifluoromethyl)pyridin-4-amine], the solubility at 5 min in data set [3] was more than 25 µM. Also, the pIC50 was 6.00 to 6.60 in data set [2] and 6.60 to 7.29 on PqsR. Further, the half-life at 1 μM in data set [4] is more than 1 h.
Take `FC(F)(F)c1cc(SCc2ccc(-c3ccc(Oc4ccccc4)nc3)cn2)ccn1` [Compound 114, 6-Phenoxy-6′-(((2-(trifluoromethyl)pyridin-4-yl)thio)methyl)-3,3′-bipyridine]: in data set [1], the half-life at 1 μM was more than 1 h. This compound showed a pIC50 on PqsR of 6.60 to 7.29.
Take `Nc1cc(SCc2nc3cc(Cl)ccc3[nH]2)nc(C(F)(F)F)n1` [Compound 118, 6-(((5-Chloro-1H-benzo[d]imidazol-2-yl)methyl)thio)-2-(trifluoromethyl)pyrimidin-4-amine]: in data set [1], the half-life at 1 μM is more than 1 h. Moreover, the values for the pIC50 (in data set [2]; at PqsR) were 5.30 to 6.00 and 6.60 to 7.29, respectively.
As for `Nc1cc(SCc2nc3cc(Oc4ccccc4)ccc3[nH]2)nc(C(F)(F)F)n1` [Compound 125, 6-(((5-Phenoxy-1H-benzo[d]imidazol-2-yl)methyl)thio)-2-(trifluoromethyl)pyrimidin-4-amine], the solubility at 5 min in data set [3] was more than 25 µM. Also, in data set [1], the half-life at 1 μM is more than 1 h. Also, the negative logarithm of the IC50 (pIC50) in data set [2] is 6.00 to 6.60; at PqsR, not below 7.30.
In data set [3], `FC(F)(F)c1cc(NCc2nc3ccc(Oc4ccccc4)cc3o2)ccn1` [Compound 134, N-((6-Phenoxybenzo[d]oxazol-2-yl)methyl)-2-(trifluoromethyl)pyridin-4-amine] returned a solubility at 5 min not below 100 µM. Also, the half-life at 1 μM in data set [1] is more than 1 h. The pIC50 on PqsR is 6.00 to 6.60.
For `Fc1ccccc1Oc1ccc(-n2cc(CNc3ccnc(C(F)(F)F)c3)nn2)cc1` [Compound 144, N-((1-(4-(2-fluorophenoxy)phenyl)-1H-1,2,3-triazol-4-yl)methyl)-2-(trifluoromethyl)pyridin-4-amine], the solubility at 5 min in data set [3] was more than 25 µM. Besides, the pIC50 in data set [2] was not below 6.60; at PqsR, not below 7.30. Moreover, in data set [4], the half-life at 1 μM lay within 0.517 to 1 h.
`FC(F)(F)c1cc(NCc2cn(-c3ccc(-n4ncc5ccncc54)c(Cl)c3)nn2)ccn1` [Compound 147] yielded a solubility at 5 min in data set [3] of more than 50 µM. Also, the values for the pIC50 (in data set [2]; on PqsR) were 6.00 to 6.60 and not below 7.30, respectively. In addition, the half-life at 1 μM in data set [4] lay in the range of 0.517 to 1 h.
Take `CC(C)Oc1ccc(-c2ncc(CNc3cc(C#N)nc(C(F)(F)F)c3)s2)cc1Cl` [Compound 160, 4-(((2-(3-Chloro-4-isopropoxyphenyl)thiazol-5-yl)methyl)amino)-6-(trifluoromethyl)picolinonitrile]: the solubility at 5 min in data set [3] was more than 10 µM. For the same compound, the pIC50 in data set [2] was not below 6.60; on PqsR it was not below 7.30. Also, in data set [4], the half-life at 1 μM is 0.517 to 1 h.
In data set [3], `CC(C)Oc1ncc(-c2ncc(CNc3ccnc(C(F)(F)F)c3)cn2)cc1Cl` [Compound 164, N-((2-(5-chloro-6-isopropoxypyridin-3-yl)pyrimidin-5-yl)methyl)-2-(trifluoromethyl)pyridin-4-amine] returned a solubility at 5 min of more than 25 µM. Moreover, the pIC50 in data set [2] is 6.00 to 6.60; on PqsR it was not below 7.30. Also, the half-life at 1 μM in data set [4] is more than 1 h.
The like results for `CC(C)Oc1ccc(-c2ccc(CNc3ccnc(C(F)(F)F)c3)nc2)cc1Cl` [Compound 165, N-((5-(3-chloro-4-isopropoxyphenyl)pyridin-2-yl)methyl)-2-(trifluoromethyl)pyridin-4-amine] were, in that order, more than 25 µM, 6.00 to 6.60, not below 7.30 and more than 1 h.

The values are drawn from US11883387B2, “PqsR inverse agonists” (HELMHOLTZ-ZENTRUM FÜR INFEKTIONSFORSCHUNG GMBH, priority 2018, dated 2024).
